Test results taken from patent US11046686B2, “Thiadiazole IRAK4 compounds” (Gilead Sciences, Inc., priority 2018, dated 2021).

What follows are molecules tested on TNFα (assay: IRAK4 Monocyte TNFα Cell Based Assay). Conditions: Homo sapiens, Monocyte, human monocytes, LPS stimulated; compounds 1-32; read-out: EC50 TNF.
Design: species or system human
How it was run: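 Human monocytes (5,000/well) pretreated with compound 1 h at 37 °C (0.1% DMSO final), then stimulated with 50 pg/ml LPS for 4 h. Secreted TNFα measured by TR-FRET two-antibody detection after overnight incubation at room temperature; % control relative to unstimulated and LPS-stimulated wells.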

EC50 [nM]	Compound
2130	CC(C)Nc1cc(-c2ccc3cc(C#N)cnn23)ncc1-c1nnc(C(=O)N2CCCC2)s1 [Example 9, 7-(4-(isopropylamino)-5-(5-(pyrrolidine-1-carbonyl)-1,3,4-thiadiazol-2-yl)pyridin-2-yl)pyrrolo[1,2-b]pyridazine-3-carbonitrile]

Same assay, conditions: Homo sapiens, Monocyte, read-out: EC50 MONO TNF HTRF

Compound	EC50 [nM]
CC1(Nc2cc(-c3ccc4cc(C#N)cnn34)ncc2-c2nnc(N3CC4CC(C3)N4C(=O)C(C)(C)O)s2)COC1 [Example 112, 7-(5-(5-(6-(2-hydroxy-2-methylpropanoyl)-3,6-diazabicyclo[3.1.1]heptan-3-yl)-1,3,4-thiadiazol-2-yl)-4-((3-methyloxetan-3-yl)amino)pyridin-2-yl)pyrrolo[1,2-b]pyridazine-3-carbonitrile]	13.1
CC(C)Nc1cc(-c2ccc3cc(C#N)cnn23)ncc1-c1nnc(N2CC3CC(C2)N3C(=O)N2CCN(C)CC2)s1 [Example 108, 7-(4-(isopropylamino)-5-(5-(6-(4-methylpiperazine-1-carbonyl)-3,6-diazabicyclo[3.1.1]heptan-3-yl)-1,3,4-thiadiazol-2-yl)pyridin-2-yl)pyrrolo[1,2-b]pyridazine-3-carbonitrile]	20.6

Same assay, conditions: human monocytes; second part of Table 2, compounds 33-343; unit inferred; read-out: EC50 MONO TNF HTRF

EC50 [nM]	Compound
10.9	CC(C)Nc1cc(-c2ccc3cc(C#N)cnn23)ncc1-c1nnc([C@H]2CC[C@H](NC(=O)C(C)(C)O)CC2)s1 [Example 315, N-((1r,4r)-4-(5-(6-(3-cyanopyrrolo[1,2-b]pyridazin-7-yl)-4-(isopropylamino)pyridin-3-yl)-1,3,4-thiadiazol-2-yl)cyclohexyl)-2-hydroxy-2-methylpropanamide]
102	CCOC(=O)Cc1nnc(-c2cnc(-c3ccc4cc(C#N)cnn34)cc2NC(C)C)s1 [Example 318]
4770	CC(C)Nc1cc(-c2ccc3cc(C#N)cnn23)ncc1-c1nnc(C(=O)N[C@H]2CC[C@@H](O)CC2)s1 [Example 224, 5-(6-(3-cyanopyrrolo[1,2-b]pyridazin-7-yl)-4-(isopropylamino)pyridin-3-yl)-N-((1s,4s)-4-hydroxycyclohexyl)-1,3,4-thiadiazole-2-carboxamide]
22.4	CNc1cc(-c2ccc3cc(C#N)cnn23)ncc1-c1nnc([C@H]2C[C@H](NC(C)=O)C2)s1 [Example 282, N-((1r,3r)-3-(5-(6-(3-cyanopyrrolo[1,2-b]pyridazin-7-yl)-4-(methylamino)pyridin-3-yl)-1,3,4-thiadiazol-2-yl)cyclobutyl)acetamide]
107	CC(=O)NC1CCC(F)(c2nnc(-c3cnc(-c4ccc5cc(C#N)cnn45)cc3NC3COC3)s2)CC1 (single isomer, unassigned) [Example 196, N-(4-(5-(6-(3-cyanopyrrolo[1,2-b]pyridazin-7-yl)-4-(oxetan-3-ylamino)pyridin-3-yl)-1,3,4-thiadiazol-2-yl)-4-fluorocyclohexy)acetamide]
334	CC(=O)NC1CCC(F)(c2nnc(-c3cnc(-c4ccc5cc(C#N)cnn45)cc3NC3COC3)s2)CC1 (single isomer, unassigned) [Example 195, N-(4-(5-(6-(3-cyanopyrrolo[1,2-b]pyridazin-7-yl)-4-(oxetan-3-ylamino)pyridin-3-yl)-1,3,4-thiadiazol-2-yl)-4-fluorocyclohexy)acetamide]
34.9	CC(=O)N[C@H]1C[C@H](c2nnc(-c3cnc(-c4ccc5cc(C#N)cnn45)cc3NC3CCOCC3)s2)C1 [Example 201]
18.4	CC(C)Nc1cc(-c2ccc3cc(C#N)cnn23)ncc1-c1nnc(N2C[C@H]3CC[C@@H](C2)[C@@H]3Nc2ncccn2)s1 [Example 308, 7-(4-(isopropylamino)-5-(5-((1R,5S,8s)-8-(pyrimidin-2-ylamino)-3-azabicyclo[3.2.1]octan-3-yl)-1,3,4-thiadiazol-2-yl)pyridin-2-yl)pyrrolo[1,2-b]pyridazine-3-carbonitrile]
68	CC(=O)NC1CC2CC1CC2c1nnc(-c2cnc(-c3ccc4cc(C#N)cnn34)cc2NC(C)C)s1 (centres unmarked) [Example 285, N-(5-(5-(6-(3-cyanopyrrolo[1,2-b]pyridazin-7-yl)-4-(isopropylamino)pyridin-3-yl)-1,3,4-thiadiazol-2-y)bicyclo[2.2.1]heptan-2-yl)acetamide]

Further lines, the molecule ahead of its results:

Compound	EC50 [nM]
COC(=O)N[C@H]1CC[C@H](c2nnc(-c3cnc(-c4ccc5cc(C#N)cnn45)cc3NC(C)C)s2)CC1 [Example 126, methyl ((1r,4r)-4-(5-(6-(3-cyanopyrrolo[1,2-b]pyridazin-7-yl)-4-(isopropylamino)pyridin-3-yl)-1,3,4-thiadiazol-2-yl)cyclohexyl)carbamate]	26.2
CC(C)Nc1cc(-c2ccc3cc(C#N)cnn23)ncc1-c1nnc(N2CCC(O)(CF)CC2)s1 [Example 189]	16.3
C[C@H](C#N)Nc1cc(-c2ccc3cc(C#N)cnn23)ncc1-c1nnc(N2CCC(C)(O)CC2)s1 [Example 180]	6.8
CC1(Nc2cc(-c3ccc4cc(C#N)cnn34)ncc2-c2nnc([C@H]3CC[C@H](NC(=O)C4CC4)CC3)s2)COC1 [Example 158, N-((1r,4r)-4-(5-(6-(3-cyanopyrrolo[1,2-b]pyridazin-7-yl)-4-((3-methyloxetan-3-yl)amino)pyridin-3-yl)-1,3,4-thiadiazol-2-yl)cyclohexyl)cyclopropanecarboxamide]	19.8
CC(=O)N[C@H]1CC[C@H](c2nnc(-c3cnc(-c4ccc5cc(C#N)cnn45)cc3NC3(C)CCOCC3)s2)CC1 [Compound 268, N-((1r,4r)-4-(5-(6-(3-cyanopyrrolo[1,2-b]pyridazin-7-yl)-4-((4-methyltetrahydro-2H-pyran-4-yl)amino)pyridin-3-yl)-1,3,4-thiadiazol-2-yl)cyclohexyl)acetamide]	14.1
CC(C)Nc1cc(-c2ccc3cc(C#N)cnn23)ncc1-c1nnc(N2CCS(=N)(=O)CC2)s1 [Compound 262, 7-(5-(5-(1-imino-1-oxido-116-thiomorpholino)-1,3,4-thiadiazo1-2-yl)-4-(isopropylamino)pyridin-2-yl)pyrrolo[1,2-b]pyridazine-3-carbonitrile]	69.9
C[C@H](C#N)Nc1cc(-c2ccc3cc(C#N)cnn23)ncc1-c1nnc(N2C[C@H]3CC[C@@H](C2)[C@@H]3NC(=O)C(C)(C)O)s1 [Example 86]	0.6
CC(C)Nc1cc(-c2ccc3cc(C#N)cnn23)ncc1-c1nnc(C2CCN(C3COC3)CC2)s1 [Example 138]	15
CS(C)(=O)=NCC(=O)NC12CCC(c3nnc(-c4cnc(-c5ccc6cc(C#N)cnn56)cc4NC4CCOCC4)s3)(CC1)CC2 [Compound 338]	2.7
CC(=O)N1C[C@H]2COC[C@@H](C1)N2c1nnc(-c2cnc(-c3ccc4cc(C#N)cnn34)cc2NC(C)C)s1 [Compound 266]	3.2
CC(C)Nc1cc(-c2ccc3cc(C#N)cnn23)ncc1-c1nnc(N2CC3(CCC(C)(O)CC3)C2)s1 [Example 82, 7-(5-(5-(7-hydroxy-7-methyl-2-azaspiro[3.5]nonan-2-yl)-1,3,4-thiadiazo1-2-yl)-4-(isopropylamino)pyridin-2-yl)pyrrolo[1,2-b]pyridazine-3-carbonitrile]	23.1
CC(=O)N[C@@H]1C[C@H]2CC[C@@H](C1)N2c1nnc(-c2cnc(-c3ccc4cc(C#N)cnn34)cc2NC(C)C)s1 [Example 56, N-((1R,3s,5S)-8-(5-(6-(3-cyanopyrrolo[1,2-b]pyridazin-7-yl)-4-(isopropylamino)pyridin-3-yl)-1,3,4-thiadiazol-2-yl)-8-azabicyclo[3.2.1]octan-3-yl)acetamide]	8.3
CNc1cc(-c2ccc3cc(C#N)cnn23)ncc1-c1nnc(N2C[C@H]3C[C@@H](C2)[C@@H]3NC(C)=O)s1 [Example 176, N-((1R,5S,6s)-3-(5-(6-(3-cyanopyrrolo[1,2-b]pyridazin-7-yl)-4-(methylamino)pyridin-3-yl)-1,3,4-thiadiazol-2-yl)-3-azabicyclo[3.1.1]heptan-6-yl)acetamide]	23.5
CC(=O)N[C@H]1CC[C@H](c2nnc(-c3cnc(-c4ccc5cc(C#N)cnn45)cc3N[C@H]3C[C@@](C)(O)C3)s2)CC1 [Compound 243, N-((1R,4r)-4-(5-(6-(3-cyanopyrrolo[1,2-b]pyridazin-7-yl)-4-(((1s,3S)-3-hydroxy-3-methylcyclobutyl)amino)pyridin-3-yl)-1,3,4-thiadiazol-2-yl)cyclohexyl)acetamide]	6.4
CC(C)Nc1cc(-c2ccc3cc(C#N)cnn23)ncc1-c1nnc(N2C[C@H]3CC[C@@H](C2)[C@@H]3NC(=O)C(=O)N=S(C)(C)=O)s1 [Example 103, N1-((lR,5S,8s)-3-(5-(6-(3-cyanopyrrolo[1,2-b]pyridazin-7-yl)-4-(isopropylamino)pyridin-3-yl)-1,3,4-thiadiazol-2-yl)-3-azabicyclo[3.2.1]octan-8-yl)-N2-(dimethyl(oxo)-16-sulfanylidene)oxalamide]	1.4
N#Cc1cnn2c(-c3cc(NC4CCOCC4)c(-c4nnc([C@H]5CC[C@H](NC(=O)C6CC6)CC5)s4)cn3)ccc2c1 [Example 156, N-((1r,4r)-4-(5-(6-(3-cyanopyrrolo[1,2-b]pyridazin-7-yl)-4-((tetrahydro-2H-pyran-4-yl)amino)pyridin-3-yl)-1,3,4-thiadiazol-2-yl)cyclohexyl)cyclopropanecarboxamide]	10.9
CN1CCN(C(=O)N[C@@H]2[C@@H]3CC[C@H]2CN(c2nnc(-c4cnc(-c5ccc6cc(C#N)cnn56)cc4NC4(C)COC4)s2)C3)CC1 [Example 110, N-((1R,5S,8s)-3-(5-(6-(3-cyanopyrrolo[1,2-b]pyridazin-7-yl)-4-((3-methyloxetan-3-yl)amino)pyridin-3-yl)-1,3,4-thiadiazol-2-yl)-3-azabicyclo[3.2.1]octan-8-yl)-4-methylpiperazine-1-carboxamide]	1.8
